Laboratory results taken from patent publication US9718819B2 (Merck Sharp & Dohme Corp., priority 2012, dated 2017).

These compounds were tested against HIV-1 RT wild-type enzyme (Human immunodeficiency virus type 1 group M subtype B (isolate HXB2) (HIV-1), UniProt P04585) (assay: HIV-1 reverse transcriptase inhibitory activity (RT polymerase assay)). Settings: HIV-1 RT wild-type enzyme 83 pM; RNA-dependent DNA polymerase activity; read-out: IC50.
Type: biochemical
Summary of the method: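 Biotinylated DNA primer annealed to HCV-derived RNA template (16.6 nM final hybrid), with 2 μM dATP/dGTP/dCTP and 66.6 nM Ru-dUTP, after 30 min compound–enzyme preincubation at room temperature; polymerization 90 min at 37 °C, EDTA quench. Product captured on avidin plates, electrochemiluminescence read; IC50 by four-parameter logistic fit versus DMSO and 1 μM efavirenz controls.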
For `N#Cc1cc(Cl)cc(Oc2c(C(F)(F)F)ncn(Cc3cc(-c4cccnc4F)c(=O)[nH]n3)c2=O)c1` [Example 87, 3-chloro-5-((1-((5-(2-fluoropyridin-3-yl)-6-oxo-1,6-dihydropyridazin-3-yl)methyl)-6-oxo-4-(trifluoromethyl)-1,6-dihydropyrimidin-5-yl)oxy)benzonitrile], the IC50 was 18 nM. Work on `N#Cc1cc(Cl)cc(Oc2c(C(F)(F)F)ncn(Cc3cnc(C(N)=O)[nH]c3=O)c2=O)c1` [Example 154, 5-((5-(3-chloro-5-cyanophenoxy)-6-oxo-4-(trifluoromethyl)pyrimidin-1(6H)-yl)methyl)-6-oxo-1,6-dihydropyrimidine-2-carboxamide] yielded an IC50 of 42 nM. In the case of `N#Cc1cc(Cl)cc(Oc2c(C(F)(F)F)ncn(Cc3cnc(-c4ccc(F)cc4)[nH]c3=O)c2=O)c1` [Example 146, 3-chloro-5-((1-((2-(4-fluorophenyl)-6-oxo-1,6-dihydropyrimidin-5-yl)methyl)-6-oxo-4-(trifluoromethyl)-1,6-dihydropyrimidin-5-yl)oxy)benzonitrile], the IC50 is reported as 19 nM. In the case of `Cn1cc(-c2cc(Cn3cnc(C(F)(F)F)c(Oc4cc(Cl)cc(C#N)c4)c3=O)n[nH]c2=O)cn1` [Example 72, 3-chloro-5-((1-((5-(1-methyl-1H-pyrazol-4-yl)-6-oxo-1,6-dihydropyridazin-3-yl)methyl)-6-oxo-4-(trifluoromethyl)-1,6-dihydropyrimidin-5-yl)oxy)benzonitrile], the IC50 is reported as 7 nM. In the case of `CC(F)(F)c1ncn(Cc2cc(-c3ccc(F)cc3)c(=O)[nH]n2)c(=O)c1Oc1cc(Cl)cc(C#N)c1` [Example 170, 3-chloro-5-((4-(1,1-difluoroethyl)-1-((5-(4-fluorophenyl)-6-oxo-1,6-dihydropyridazin-3-yl)methyl)-6-oxo-1,6-dihydropyrimidin-5-yl)oxy)benzonitrile], the IC50 is reported as 5 nM. For `N#Cc1cc(Cl)cc(Oc2c(C(F)(F)F)ncn(Cc3cnc(-c4ccc(Cl)nc4)[nH]c3=O)c2=O)c1` [Example 152, 3-chloro-5-((1-((2-(6-chloropyridin-3-yl)-6-oxo-1,6-dihydropyrimidin-5-yl)methyl)-6-oxo-4-(trifluoromethyl)-1,6-dihydropyrimidin-5-yl)oxy)benzonitrile], the IC50 was 32 nM. With `N#Cc1cc(Cl)cc(Oc2c(C(F)(F)F)ncn(Cc3cc(-c4ccccc4)c(=O)[nH]n3)c2=O)c1` [Example 22] the IC50 was 3 nM. With `N#Cc1cc(Cl)cc(Oc2c(C(F)(F)F)ncn(Cc3cc(-c4cc(F)ccc4F)c(=O)[nH]n3)c2=O)c1` [Example 48, 3-chloro-5-((1-((5-(2,5-difluorophenyl)-6-oxo-1,6-dihydropyridazin-3-yl)methyl)-6-oxo-4-(trifluoromethyl)-1,6-dihydropyrimidin-5-yl)oxy)benzonitrile] the IC50 was 9 nM. `N#Cc1cc(Cl)cc(Oc2c(C3CC3)ncn(Cc3ccc(=O)[nH]n3)c2=O)c1` [Example 134, 3-chloro-5-((4-cyclopropyl-6-oxo-1-((6-oxo-1,6-dihydropyridazin-3-yl)methyl)-1,6-dihydropyrimidin-5-yl)oxy)benzonitrile] gave an IC50 of 17 nM. `CC(C)(O)c1cc(Cn2cnc(C(F)(F)F)c(Oc3cc(Cl)cc(C#N)c3)c2=O)n[nH]c1=O` [Example 11, 3-chloro-5-((1-((5-(2-hydroxypropan-2-yl)-6-oxo-1,6-dihydropyridazin-3-yl)methyl)-6-oxo-4-(trifluoromethyl)-1,6-dihydropyrimidin-5-yl)oxy)benzonitrile] was tested, and the IC50 was 124 nM. For `N#Cc1cc(Cl)cc(Oc2c(C(F)(F)F)ncn(Cc3cc(-c4cnc5ccccc5c4)c(=O)[nH]n3)c2=O)c1` [Example 88, 3-chloro-5-((6-oxo-1-((6-oxo-5-(quinolin-3-yl)-1,6-dihydropyridazin-3-yl)methyl)-4-(trifluoromethyl)-1,6-dihydropyrimidin-5-yl)oxy)benzonitrile], the IC50 was 17 nM. Work on `N#Cc1cc(Cl)cc(Oc2c(C(F)(F)F)ncn(Cc3cnc(Oc4ccc(F)cc4)[nH]c3=O)c2=O)c1` [Example 140, 3-Chloro-5-{1-[2-(4-fluoro-phenoxy)-6-oxo-1,6-dihydro-pyrimidin-5-ylmethyl]-6-oxo-4-trifluoromethyl-1,6-dihydro-pyrimidin-5-yloxy}-benzonitrile] yielded an IC50 of 36 nM. Work on `N#Cc1cc(Cl)cc(Oc2c(C(F)(F)F)ncn(Cc3cnc(-c4ccn[nH]4)[nH]c3=O)c2=O)c1` [Example 148, 3-chloro-5-((6-oxo-1-((6-oxo-2-(1H-pyrazol-5-yl)-1,6-dihydropyrimidin-5-yl)methyl)-4-(trifluoromethyl)-1,6-dihydropyrimidin-5-yl)oxy)benzonitrile] yielded an IC50 of 9 nM. In the case of `N#Cc1cc(Oc2c(C(F)(F)F)ncn(Cc3cc(-c4ccc(F)cc4)c(=O)[nH]n3)c2=O)cc(OC(F)F)c1` [Example 167, 3-(difluoromethoxy)-5-((1-((5-(4-fluorophenyl)-6-oxo-1,6-dihydropyridazin-3-yl)methyl)-6-oxo-4-(trifluoromethyl)-1,6-dihydropyrimidin-5-yl)oxy)benzonitrile], the IC50 is reported as 6 nM. In the case of `N#Cc1cc(Cl)cc(Oc2c(C(F)(F)F)ncn(Cc3cc(-c4ccc(F)nc4)c(=O)[nH]n3)c2=O)c1` [Example 78, 3-chloro-5-((1-((5-(6-fluoropyridin-3-yl)-6-oxo-1,6-dihydropyridazin-3-yl)methyl)-6-oxo-4-(trifluoromethyl)-1,6-dihydropyrimidin-5-yl)oxy)benzonitrile], the IC50 is reported as 6 nM. Compound `N#Cc1cc(Cl)cc(Oc2c(C(F)(F)F)ncn(Cc3cc(-c4ccc(Cl)c(F)c4)n[nH]c3=O)c2=O)c1` [Example 123, 3-chloro-5-((1-((6-(4-chloro-3-fluorophenyl)-3-oxo-2,3-dihydropyridazin-4-yl)methyl)-6-oxo-4-(trifluoromethyl)-1,6-dihydropyrimidin-5-yl)oxy)benzonitrile] has an IC50 of 6 nM. `N#Cc1cc(Cl)cc(Oc2c(C(F)(F)F)ccn(Cc3cc(C(F)F)n[nH]c3=O)c2=O)c1` [Example 172, 3-chloro-5-((1-((6-(difluoromethyl)-3-oxo-2,3-dihydropyridazin-4-yl)methyl)-2-oxo-4-(trifluoromethyl)-1,2-dihydropyridin-3-yl)oxy)benzonitrile] showed an IC50 of 5 nM. Work on `N#Cc1cc(Cl)cc(Oc2c(C(F)(F)F)ncn(Cc3cc(-c4cc(F)cc(F)c4)c(=O)[nH]n3)c2=O)c1` [Example 33, 3-chloro-5-((1-((5-(3,5-difluorophenyl)-6-oxo-1,6-dihydropyridazin-3-yl)methyl)-6-oxo-4-(trifluoromethyl)-1,6-dihydropyrimidin-5-yl)oxy)benzonitrile] yielded an IC50 of 7 nM. `CS(=O)(=O)c1cc(Cn2cnc(C(F)(F)F)c(Oc3cc(Cl)cc(C#N)c3)c2=O)n[nH]c1=O` [Example 96, 3-chloro-5-((1-((5-(methylsulfonyl)-6-oxo-1,6-dihydropyridazin-3-yl)methyl)-6-oxo-4-(trifluoromethyl)-1,6-dihydropyrimidin-5-yl)oxy)benzonitrile] showed an IC50 of 336 nM. With `COc1cc(Cn2cnc(C(F)(F)F)c(Oc3cc(Cl)cc(C#N)c3)c2=O)n[nH]c1=O` [Example 106, 3-chloro-5-((1-((5-methoxy-6-oxo-1,6-dihydropyridazin-3-yl)methyl)-6-oxo-4-(trifluoromethyl)-1,6-dihydropyrimidin-5-yl)oxy)benzonitrile] the IC50 was 12 nM. With `N#Cc1cc(Cl)cc(Oc2c(C(F)(F)F)ncn(Cc3cc(C(O)C4CC4)c(=O)[nH]n3)c2=O)c1` (stereo not drawn) [Example 17, 3-chloro-5-((1-((5-(cyclopropyl(hydroxy)methyl)-6-oxo-1,6-dihydropyridazin-3-yl)methyl)-6-oxo-4-(trifluoromethyl)-1,6-dihydropyrimidin-5-yl)oxy)benzonitrile] the IC50 was 179 nM. `CC(F)(F)c1ncn(Cc2cc(C(F)F)n[nH]c2=O)c(=O)c1Oc1cccc(C#N)c1F` [Example 177, 3-((4-(1,1-difluoroethyl)-1-((6-(difluoromethyl)-3-oxo-2,3-dihydropyridazin-4-yl)methyl)-6-oxo-1,6-dihydropyrimidin-5-yl)oxy)-2-fluorobenzonitrile] was tested, and the IC50 was 17 nM. `Cc1ncn(Cc2cc(C(F)F)n[nH]c2=O)c(=O)c1Oc1cc(Cl)cc(C#N)c1` [Example 176, 3-chloro-5-((1-((6-(difluoromethyl)-3-oxo-2,3-dihydropyridazin-4-yl)methyl)-4-methyl-6-oxo-1,6-dihydropyrimidin-5-yl)oxy)benzonitrile] showed an IC50 of 6 nM. `N#Cc1cc(Cl)cc(Oc2c(C(F)(F)F)ncn(Cc3cc(-c4ccc(F)cc4Cl)c(=O)[nH]n3)c2=O)c1` [Example 40, 3-chloro-5-((1-((5-(2-chloro-4-fluorophenyl)-6-oxo-1,6-dihydropyridazin-3-yl)methyl)-6-oxo-4-(trifluoromethyl)-1,6-dihydropyrimidin-5-yl)oxy)benzonitrile] gave an IC50 of 70 nM. Work on `N#Cc1cc(Cl)cc(Oc2c(C(F)(F)F)ncn(Cc3cc(-c4ccn[nH]4)c(=O)[nH]n3)c2=O)c1` [Example 65, 3-chloro-5-((6-oxo-1-((6-oxo-5-(1H-pyrazol-5-yl)-1,6-dihydropyridazin-3-yl)methyl)-4-(trifluoromethyl)-1,6-dihydropyrimidin-5-yl)oxy)benzonitrile] yielded an IC50 of 5 nM. `CN(C)c1ncc(Cn2cnc(C(F)(F)F)c(Oc3cc(Cl)cc(C#N)c3)c2=O)c(=O)[nH]1` [Example 141, 3-Chloro-5-[1-(2-dimethylamino-6-oxo-1,6-dihydro-pyrimidin-5-ylmethyl)-6-oxo-4-trifluoromethyl-1,6-dihydro-pyrimidin-5-yloxy]-benzonitrile] gave an IC50 of 13 nM. Compound `N#Cc1cccc(Oc2c(C(F)(F)F)ncn(Cc3cc(C(F)F)n[nH]c3=O)c2=O)c1F` [Example 174, 3-((1-((6-(difluoromethyl)-3-oxo-2,3-dihydropyridazin-4-yl)methyl)-6-oxo-4-(trifluoromethyl)-1,6-dihydropyrimidin-5-yl)oxy)-2-fluorobenzonitrile] has an IC50 of 5 nM.
